Values after ≈ are worked out from the molar mass of the structure shown. Read-outs that look alike come from different tables or passages of the source.
Legend:
HeLa cells [1] = test system: HeLa cells
Method: The HeLa cell line CCL-2™ was purchased from the American Type Culture Collection (ATCC, Manassas, Va., USA).
The following formula was used to calculate the intracellular concentration of the peptides.
Intracellular concentration=(c*300 uL)/(cell number*4*10^−9 cm^3)
where c=(fluorescence−15406.76945)/74174.36908. An average size for the common cells used in cell culture (HeLa) is 15-20 microns in diameter for a suspended cell (volume 4/3πr^3=4000 μm^3 or 4×10^−9 cm^3) (Moran et al., Cell 141:1262 (2010), which is hereby incorporated by reference in its entirety). Methanol was used to break the cell membrane and fully dissolve compounds 1-t, 2-t, and 3.
To quantify the intracellular concentration of the D-peptide derivatives, the procedure illustrated in FIG. 9A was used to determine the cellular uptake of 1-t, 1, and 2-t after treating HeLa cells with these molecules, respectively. […] The “uptake concentration (Cu)” of 1-t or 1 is the sum of 3 and 1-t (or 1) inside the cells.

[2] = 1.0 wt %, pH 7.4
Method: Peptides 1-t/1 were dissolved into distilled water, and the pH of the solution was adjusted carefully by adding 1M NaOH, and this was monitored with pH paper. After the pH of the solution reached 7.4, extra distilled water was added to make the final concentration, followed by the addition of esterase to induce enzymatic gelation.
To elucidate the enzyme-catalyzed self-assembly to form supramolecular nanofibrils inside cells after cellular uptake illustrated in FIG. 2A, the enzymatic transformation of 1-t (or 1) to 3 and the subsequent self-assembly of 3 at the concentration of 1.0 wt % was first examined. To study the enzymatic hydrogelation process of 1-t, analytical HPLC was used to evaluate the rate of enzymatic transformation and transmission electron microscopy (TEM) to examine the self-assembly.

esterase = experiment: Esterase-catalysed conversion of 1-t to 3 (analytical HPLC); format: biochemical, porcine
HeLa cells [3] = details: 200 μM, 24 hours
HS-5 cells [4] = details: 72 h
Method: (§1) The cells were seeded in exponential growth phase in a 96 well plate at a concentration of 1×10^4 cell/well with 100 μL of culture medium. Cells were allowed to attach for 24 hours at 37° C., 5% CO2 and then the culture medium was removed with the help of vacuum pump. Culture medium containing the precursors in gradient concentrations was added to each well (0 μM as control). 10 μL of 5 mg/mL MTT ((3-(4,5-Dimethylthiazol-2-yl)-2,5-diphenyltetrazolium bromide) was added to each well after 24 hours, 48 hours, and 72 hours incubation. After 4 hours incubation of the plated cells in dark place, 100 μL 10% SDS with 0.01 M HCl was added to each well to dissolve the purple formazan and to stop the reduction reaction. 24 hours later, the absorbance of the solution at 595 nm was finally measured with a DTX 880 Multimode Detector.

[5] = test system: co-cultured HS-5 and A2780cis cells; experiment: Cell viability of co-cultured HS-5 and A2780cis cells; format: cell-based; details: L-10 73 μg/mL, third day
Method: 5×10^3 of SKOV3 cells (or A2780cis) and 5×10^3 HS-5 cells per well were seeded together and co-cultured in DMEM medium. Based on the results in FIG. 22, the concentrations of L-10 and D-10 at 73 and 37 μg/mL, respectively, were chosen. […] The inhibitory activities of L-10 and D-10 towards the co-culture agree well with their cytotoxicity against A2780cis, SKOV3, and H-5 cells. […] For example, on the first day, the cell viabilities of co-cultured HS-5 and SKOV3 cells and co-cultured HS-5 and A2780cis cells treated by D-10 (37 μg/mL) were 79% and 80%, respectively. While on the third day, the cell viabilities dropped to 44% and 57%, respectively. […] Contrary to the case of D-10, the efficacies of L-10 were almost the same between day two and day three (FIG. 25A), which agreed with the lower in vivo stability of L-10 than that of D-10.

HeLa cells [6] = experiment: MTT cell viability, HeLa; format: cell-based; details: third day (72 h)
Method: D-7 and D-10 (FIG. 12A), the enantiomers of L-7 and L-10, were prepared as described in Example 3. HeLa and SKOV3 cells were used in an MTT assay for assessing cytotoxicity of the peptides against these cancer cell lines.

A2780 cells = experiment: MTT cell viability, A2780; format: cell-based; details: third day (72 h)
T98G cells = experiment: MTT cell viability, T98G; format: cell-based
Method: as §1

Saos-2 cells = experiment: MTT cell viability, Saos-2; format: cell-based; details: third day (72 h)
Method: as §1

SKOV3 cells [7] = experiment: LC-MS of cell lysates and culture medium, SKOV3; format: cell-based
Method: After confirming that CES converts the precursor L-10 or D-10 into the hydrogelator L-12 or D-12, the stability of the precursors (L-10 or D-10) when incubated with the ovarian cancer cells was determined. After culturing the precursors with SKOV3 or A2780cis cells at 37° C. for 4 hours, the cell lysates and culture medium were collected for liquid chromatography-mass spectrometry (LC-MS) analysis and the intracellular concentrations of the precursors, the hydrogelators, and the relevant proteolyzed products were determined. After incubation with SKOV3 or A2780cis cells for 4 hours, more than 85% of the precursors (L-10 or D-10) turned into the corresponding hydrogelators (L-12 or D-12; see Table 1 below).

SKOV3 cells [8] = test system: SKOV3 cells
Method: SKOV3 cells were seeded in exponential growth phase in a 96 well plate at a concentration of 1×10^4 cell/well with 100 μL of McCoy's 5A medium modified supplemented with 10% fetal bovine serum (FBS), 100 U/mL penicillin and 100 μg/ml streptomycin. The cells were allowed to attach to the wells for 24 hours at 37° C., 5% CO2. The culture medium was removed and 100 μL culture medium containing compounds (immediately diluted from fresh prepared stock solution of 10 mM) at gradient concentrations (0 μM as the control) was placed into each well. McCoy's 5A medium modified was regarded as blank. After culturing at 37° C., 5% CO2 for 24 hours, 48 hours, and 72 hours, 10 μL of 5 mg/mL MTT (3-(4,5-Dimethylthiazol-2-yl)-2,5-diphenyltetrazolium bromide) was added to each well, and the plated cells were incubated in dark place for 4 hours. 100 μL 10% SDS with 0.01 M HCl was added to each well to stop the reduction reaction and to dissolve the purple formazan. After incubation of the cells at 37° C. for overnight, the OD at 595 nm of the solution was measured in a microplate reader.
as §1

U87MG cells = experiment: MTT cell viability, U87MG; format: cell-based
Method: as §1

in vitro = details: human
Method: as §1

A375 cells = experiment: MTT cell viability, A375; format: cell-based; details: third day (72 h)
Method: as §1

MES-SA cells = experiment: MTT cell viability, MES-SA; format: cell-based; details: third day (72 h)
Method: as §1

PC-12 cells [9] = experiment: MTT cell viability, PC-12 neuronal cells; format: cell-based, rat
Method: as §1

MCF-7 cells = experiment: MTT cell viability, MCF-7; format: cell-based; details: third day (72 h)
Method: as §1

HS-5 cells [10] = experiment: MTT cell viability, HS-5 stromal cells
Method: as §1

MES-SA/D×5 cells = experiment: MTT cell viability, MES-SA/D×5; format: cell-based; details: third day (72 h)
Method: as §1

HepG2 cells = experiment: MTT cell viability, HepG2; format: cell-based; details: third day (72 h)
Method: as §1

[11] = Systemic toxicity after intravenous injection in mice; details: 5 to 20 mg/kg, after 7 days
HCC1937 cells = experiment: MTT cell viability, HCC1937; format: cell-based; details: third day (72 h)
HS-5 cells [12] = details: literature (Mendonca et al.); cited from earlier work
SKOV3 cells [13] = details: read-out: IC50 of cisplatin; literature value (Oumzil et al.) used as comparison for SKOV3 inhibition; cited from earlier work
PC-12 cells [14] = details: literature (Mendonca et al.); cited from earlier work
[15] = 200 μM in culture medium, 24 hours
[16] = SKOV3 cell lysates, 4 hours, 37° C., 20 μm D-10 or 50 μm L-10

O=C(CCC(=O)OCCNC(=O)[C@@H](Cc1ccccc1)NC(=O)[C@@H](Cc1ccccc1)NC(=O)CCNc1ccc([N+](=O)[O-])c2nonc12)NCCS(=O)(=O)O [1-t]
enhancement of cellular uptake compared with incubation concentration (HeLa cells [1]; 50 μM, 24 hours): about 3 fold
uptake concentration (Cu) / intracellular concentration (HeLa cells [1]; [15]): 1.6 mM
intracellular concentration after washing five times with PBS buffer (HeLa cells [1]; 200 μM, 24 hour incubation): 1.4 mM
uptake concentration relative to incubation (extracellular) concentration (HeLa cells [1]; 200 μM, 24 hours): 8 fold
Cu (HeLa cells [1]; 200 μM, 48 hours): 2.4 mM
enhancement of cellular uptake compared with incubation concentration (HeLa cells [1]; 200 μM, 48 hours): 12 fold
enhancement of cellular uptake compared with incubation concentration (HeLa cells [1]; 500 μM, 24 hours): ~4.5 fold
intracellular concentration (HeLa cells [1]; incubation medium 25 μM, 24 hours): 28 µM
solubility [2]: significantly enhanced the solubility
1-t converted to 3 (HPLC) (esterase; 1-t 100 μM, esterase 1 U/mL, 24 hours): more than 50%
metabolised at 24 h, 1 wt % (esterase; pig, esterase from porcine liver, pH 7.4, 1-t 1.0 wt %, esterase 1 U/ml, 24 hours, read-out: 1-t converted to 3 (HPLC)): ~11%
metabolised at 1 min, 1 wt % (esterase; pig, esterase from porcine liver, 1-t 1.0 wt %, pH 7.4, esterase 1 U/ml, 1 min, read-out: 1-t converted to 3 (analytical HPLC)): 2.5%

O=C(CCC(=O)NCCS(=O)(=O)O)NCCNC(=O)[C@@H](Cc1ccccc1)NC(=O)[C@@H](Cc1ccccc1)NC(=O)CCNc1ccc([N+](=O)[O-])c2nonc12 [2-t]
Cu (HeLa cells [1]; [15]): 0.8 mM
uptake concentration (Cu) / intracellular concentration (HeLa cells [1]; [15]): 0.8 mM
intracellular concentration after first wash (HeLa cells [1]; 200 μM, 24 hour incubation): 0.6 mM
intracellular concentration after washing five times with PBS buffer (HeLa cells [1]; 200 μM, 24 hour incubation): 0.08 mM
decrease of intracellular concentration by each wash (HeLa cells [1]; 200 μM, 24 hour incubation, PBS wash): about 25%
uptake concentration relative to incubation (extracellular) concentration (HeLa cells [1]; 200 μM, 24 hours): 4 fold
stability inside cells (HeLa cells [3]): remained intact inside cells

O=C(CCC(=O)OCCNC(=O)[C@H](Cc1ccccc1)NC(=O)[C@H](Cc1ccccc1)NC(=O)Cc1ccc2ccccc2c1)NCCS(=O)(=O)O [L-10]
IC50, HS-5 (HS-5 cells [4]): above 73 μg/mL
inhibition of co-cultured HS-5 and A2780cis cells [5]: about 57%
IC50, HeLa (HeLa cells [6]): 53 µg/mL (≈ 72.5 µM)
IC50, A2780cis (A2780cis cells; third day (72 h)): 39 µg/mL (≈ 53.4 µM)
IC50, A2780 (A2780 cells): 49 µg/mL (≈ 67 µM)
cell viability of T98G (T98G cells; 365 μg/mL of L-10): ~60%
cytotoxicity toward T98G (T98G cells; at or below 146 μg/mL, 72 h): little cytotoxicity
IC50, Saos-2 (Saos-2 cells): 80 µg/mL (≈ 109 µM)
cumulative intracellular concentration of precursor and hydrogelator relative to incubation concentration (SKOV3 cells [7]; 4 hours incubation): about 10 fold
Ratio of hydrogelator to precursor after 4 hours (SKOV3 cells [7]; SKOV3 cell lysates, 20 μm D-10 or 50 μm L-10): 6.95
Hydrogelator (12) intracellular concentration (SKOV3 cells [7]; [16]): 431 μm
Precursor (10) intracellular concentration (SKOV3 cells [7]; [16]): 62 μm
IC50, SKOV3 (SKOV3 cells [8]; 72 h): 46 µg/mL (≈ 62.9 µM)
inhibition of SKOV3 cells by mixture with CP (SKOV3 cells [8]; 72 h, 37 μg/mL): ~87%
cell viability of U87MG (U87MG cells; 365 μg/mL of L-10): about 70%
cytotoxicity toward U87MG (U87MG cells; at or below 146 μg/mL, 72 h): little cytotoxicity
viability at 3 day, 73 μg/mL (in vitro): ~80%
IC50, A375 (A375 cells): 94 µg/mL (≈ 129 µM)
IC50, MES-SA (MES-SA cells): 40 µg/mL (≈ 54.7 µM)
inhibition of PC-12 cells (PC-12 cells [9]; 20 μM (D-10) and 50 μM (L-10)): hardly inhibited
IC50, PC-12 (PC-12 cells [9]; third day (72 h)): above 73 μg/mL
IC50, MCF-7 (MCF-7 cells): 28 µg/mL (≈ 38.3 µM)
inhibition of HS-5 cells (HS-5 cells [10]; 20 μM (D-10) and 50 μM (L-10)): hardly inhibited
IC50, MES-SA/D×5 (MES-SA/D×5 cells): 322 µg/mL (≈ 441 µM)
IC50, HepG2 (HepG2 cells): 97 µg/mL (≈ 133 µM)
effect on weight and organ index of mice [11]: hardly affected
IC50, HCC1937 (HCC1937 cells): 29 µg/mL (≈ 39.7 µM)

N.N.[Cl][Pt][Cl] [cisplatin, reference compound]
inhibition of A2780cis cells (A2780cis cells; 37 μg/mL, third day): about 98%
inhibition of HS-5 cells (HS-5 cells [12]): significantly inhibiting
IC50 (SKOV3 cells [13]): 35 µM
inhibition of PC-12 cells (PC-12 cells [14]): significantly inhibiting
inhibition of SKOV3 cells (SKOV3 cells [8]; 37 μg/mL, third day): 90%
inhibition of SKOV3 cells (SKOV3 cells [8]; CP 6 μg/mL alone, 72 hours): 48%
cell death of SKOV3 cells (SKOV3 cells [8]; CP 6 μg/mL alone, 72 hours (control compound experiment)): about 40%
HS-5 cells killed / inhibited (HS-5 cells [10]; 37 μg/mL, third day): ~100%

O=C(O)CCC(=O)OCCNC(=O)[C@@H](Cc1ccccc1)NC(=O)[C@@H](Cc1ccccc1)NC(=O)CCNc1ccc([N+](=O)[O-])c2nonc12 [compound 1]
uptake concentration (Cu) / intracellular concentration (HeLa cells [1]; [15]): hardly detected
solubility [2]: less soluble than 1-t
